Laboratory results as given in the Biogen ADME set (Fang et al. 2023).
Values after ≈ are worked out from the molar mass of the structure shown.

Conditions: for aqueous solubility: pH 6.8

Compound	MDR1-MDCK efflux ratio	intrinsic clearance, human liver microsomes	intrinsic clearance, rat liver microsomes	aqueous solubility	fraction unbound, human plasma	fraction unbound, rat plasma
Cn1cc(-c2ccc(-c3cncc(Cl)c3N3CCC4(CCNC4=O)CC3)cc2)cn1	61.1	65.7 mL/min/kg	308 mL/min/kg	3.11 µg/mL (≈ 7.37 µM)	–	–
CCN(CC)C(=O)c1ccc(C2=CC3(CCNCC3)Oc3cccc(O)c32)cc1	20.9	9 mL/min/kg	65.8 mL/min/kg	–	–	–
Cc1cc(NCC2(c3ccncc3)CC2)ncn1	2.49	≤ 4.74 mL/min/kg	198 mL/min/kg	–	–	–
Cc1nc(C(C)C)sc1C(=O)Nc1nc(C(C)(C)C)cs1	0.306	27.8 mL/min/kg	398 mL/min/kg	11.8 µg/mL (≈ 36.4 µM)	–	–
CCCc1cc(N2CCc3c(nc(C4CC4)n3C)C2)n2ncnc2n1	38.3	9.63 mL/min/kg	179 mL/min/kg	53.3 µg/mL (≈ 158 µM)	0.476	0.244
Cc1sc2ncnc(OCC(=O)NC3CCCCC3)c2c1C	1.59	34.8 mL/min/kg	377 mL/min/kg	17.2 µg/mL (≈ 54 µM)	–	–
COc1ccc(CN2CCN(c3cc(C)nc(N)n3)CC2)cc1OC	5.7	≤ 4.74 mL/min/kg	≤ 10.7 mL/min/kg	53.6 µg/mL (≈ 156 µM)	–	–
Cc1ccc(OCCCC(=O)N2CCC(n3c(=O)[nH]c4ccccc43)CC2)cc1	–	123 mL/min/kg	1540 mL/min/kg	–	–	–
NC(=O)C1(CCCc2ccccn2)CCNCC1	–	≤ 4.74 mL/min/kg	84.3 mL/min/kg	38.7 µg/mL (≈ 156 µM)	–	–
CCc1nc(CN2CCC(=O)Nc3cc(F)ccc32)n[nH]1	14.7	≤ 4.74 mL/min/kg	16.1 mL/min/kg	–	–	–
CC(=O)Nc1cc(CCC2CCNCC2)ccn1	2.42	≤ 4.74 mL/min/kg	≤ 10.7 mL/min/kg	51 µg/mL (≈ 206 µM)	–	–
COCC(C)(C)CNC(=O)C1(Cn2cccn2)CC1	–	13 mL/min/kg	188 mL/min/kg	–	–	–
Cc1ccc(Cn2nc(C(=O)N[C@@H]3C(C)(C)[C@@H]4CC[C@@]3(C)C4)cc2-c2ccc(Cl)c(C)c2)cc1	0.636	181 mL/min/kg	676 mL/min/kg	1.29 µg/mL (≈ 2.71 µM)	–	–
Nc1nc2c3ccccc3oc2c2ccccc12	0.236	–	–	0.25 µg/mL (≈ 1.07 µM)	–	–
Cc1nc(Cn2ncc3ccccc3c2=O)cs1	0.681	≤ 4.74 mL/min/kg	103 mL/min/kg	45.1 µg/mL (≈ 175 µM)	–	–
Cc1cc(Nc2ccc(F)cn2)cc(C2CCN(C(=O)CCc3cccc(Cl)c3)C2)n1 (stereo not given)	9.81	562 mL/min/kg	2270 mL/min/kg	–	–	–
CN(Cc1ccc(C(=O)O)cc1)C(=O)c1ccnn1C	0.663	≤ 4.74 mL/min/kg	≤ 10.7 mL/min/kg	–	–	–
Cc1ncsc1-c1nc(CNc2cc(F)cc(F)c2)no1	–	65.7 mL/min/kg	661 mL/min/kg	–	–	–
Cc1ccc(-c2nc3ccccc3[nH]2)cc1NS(=O)(=O)c1ccc(Cl)cc1	4.88	–	–	0.28 µg/mL (≈ 0.704 µM)	–	–

Compound	MDR1-MDCK efflux ratio	intrinsic clearance, human liver microsomes	intrinsic clearance, rat liver microsomes	aqueous solubility	fraction unbound, human plasma	fraction unbound, rat plasma
COCCN(Cc1cccs1)Cc1cccc(C)c1O	–	124 mL/min/kg	2100 mL/min/kg	1.05 µg/mL (≈ 3.6 µM)	–	–
COc1c(N)ncnc1N1CCCC(C)(C)CC1	0.912	37.2 mL/min/kg	1210 mL/min/kg	38.4 µg/mL (≈ 153 µM)	–	–
Cc1ccc(OC[C@@H](O)[C@H](C)NC(C)C)c2c1CCC2	1.38	124 mL/min/kg	3140 mL/min/kg	–	–	–
O=C(COCc1nc2ccccc2s1)N1CCC(n2c(=O)[nH]c3ccccc32)CC1	–	68.6 mL/min/kg	1020 mL/min/kg	–	–	–
COCc1ncc(CN2CCC(Oc3ccccc3C)CC2)cn1	–	23.1 mL/min/kg	180 mL/min/kg	–	–	–
CN1CCC(CNc2ccc3ncc(-c4cccc(OC(F)(F)F)c4)n3n2)CC1	–	90.9 mL/min/kg	365 mL/min/kg	–	–	–
Cc1cc(C)nc(CNC(=O)CC2CCNCC2)n1	–	≤ 4.74 mL/min/kg	≤ 10.7 mL/min/kg	55.5 µg/mL (≈ 212 µM)	–	–
O=C(O)c1ccc(CCC(=O)N2CCc3c(F)cc(F)cc3C2)cc1	4.05	≤ 4.74 mL/min/kg	≤ 10.7 mL/min/kg	–	–	–
O=C(NCCc1nnc2n1CCC2)c1ccc2c(c1)CCC2	82.7	≤ 4.74 mL/min/kg	45.1 mL/min/kg	23.6 µg/mL (≈ 79.8 µM)	–	–
Cc1ccc(C(=O)O)cc1NS(=O)(=O)c1csc(C(=O)Nc2ccccc2)c1	0.879	≤ 4.74 mL/min/kg	≤ 10.7 mL/min/kg	61.5 µg/mL (≈ 148 µM)	–	–
COc1ccc2nc3c(cc2c1)CNCCO3	0.504	18.1 mL/min/kg	82.4 mL/min/kg	–	–	–
Cc1cc(C)n(-c2cc(Nc3ccccc3C)ncn2)n1	0.489	59.7 mL/min/kg	286 mL/min/kg	1.74 µg/mL (≈ 6.23 µM)	–	–
CN1CCN(c2ccc(NC(=O)c3ccc(S(=O)(=O)N4CCCc5ccccc54)cc3)cc2)CC1	8.78	526 mL/min/kg	727 mL/min/kg	10.1 µg/mL (≈ 20.6 µM)	–	–
COc1ccc(OC)c(N/C=C2\C(=O)Oc3ccccc3C2=O)c1	–	–	–	0.7 µg/mL (≈ 2.15 µM)	–	–
CSCC(=O)Nc1nc(-c2ccc(C3CCCCC3)cc2)cs1	0.695	–	–	0.37 µg/mL (≈ 1.07 µM)	–	–
CN1CCC(=C2c3ccccc3CCc3sccc32)CC1	0.862	15.1 mL/min/kg	2130 mL/min/kg	–	–	–
COc1ccc2cc(C(=O)NCc3nnc4n3CCCCC4)ccc2c1	35.2	13.8 mL/min/kg	655 mL/min/kg	–	–	–
N#CC1(C(=O)N2CCN(Cc3ccccn3)CC2)CCCCC1	1.11	10.7 mL/min/kg	805 mL/min/kg	52.1 µg/mL (≈ 167 µM)	–	–
Cc1nsc(NCc2cncs2)n1	0.684	≤ 4.74 mL/min/kg	16.8 mL/min/kg	–	–	–

Second part, the compound after the results:

MDR1-MDCK efflux ratio	intrinsic clearance, human liver microsomes	intrinsic clearance, rat liver microsomes	aqueous solubility	fraction unbound, human plasma	fraction unbound, rat plasma	Compound
–	–	–	2.05 µg/mL (≈ 5.9 µM)	–	–	COc1ccc(NS(=O)(=O)c2ccc3c(c2)n(C)c(=O)n3C)cc1
15.7	18 mL/min/kg	214 mL/min/kg	–	–	–	Cn1cnc2ncn(Cc3nc(CCc4ccc(Cl)cc4)no3)c(=O)c21
21.7	44.9 mL/min/kg	360 mL/min/kg	86.4 µg/mL (≈ 218 µM)	–	–	CCOC(=O)Nc1ccc2c(c1)N(C(=O)CN(CC)CC)c1ccccc1CC2
3.36	≤ 4.74 mL/min/kg	236 mL/min/kg	–	–	–	CC(C)Cc1n[nH]c(-c2ccc(N3CCN(C)CC3)cc2)n1
0.711	4.88 mL/min/kg	≤ 10.7 mL/min/kg	45 µg/mL (≈ 135 µM)	–	–	O=C(O)c1cccc(N2CCC(Oc3ccc(Cl)cc3)CC2)n1
1.14	207 mL/min/kg	2010 mL/min/kg	30.5 µg/mL (≈ 84.1 µM)	–	–	Cc1ccc(C)c(S(=O)(=O)N2CCCN(CCn3cccn3)CC2)c1
1.33	56.1 mL/min/kg	565 mL/min/kg	–	–	–	CCCOc1ccn2c(C(C)=O)cc(-c3ccccc3S(C)(=O)=O)c2c1
–	756 mL/min/kg	2350 mL/min/kg	–	–	–	COc1ccnc(N2CCCN(Cc3ccccc3C)CC2)n1
–	10.5 mL/min/kg	134 mL/min/kg	5.53 µg/mL (≈ 14.8 µM)	–	–	CN(Cc1ccc(-c2ccc(Br)cc2)o1)C(=O)c1cnn(C)c1
–	158 mL/min/kg	277 mL/min/kg	29.7 µg/mL (≈ 80.7 µM)	–	–	COc1cc(C=C2C(=O)NN(c3ccccc3)C2=O)ccc1OCC(N)=O
–	≤ 4.74 mL/min/kg	19.2 mL/min/kg	–	–	–	Cc1ccc(NC(=O)c2ccn(C(C)C)n2)cc1N1C(=O)CCC1=O
0.634	≤ 4.74 mL/min/kg	≤ 10.7 mL/min/kg	41.9 µg/mL (≈ 140 µM)	–	–	Cc1nc(-c2ccc(Cl)c(Cl)c2)n(CC(C)(C)O)n1
0.865	≤ 4.74 mL/min/kg	14.4 mL/min/kg	27.3 µg/mL (≈ 130 µM)	–	–	O=C(O)c1ccc(N2CCCC2)c(F)c1
–	41.5 mL/min/kg	351 mL/min/kg	5.4 µg/mL (≈ 17 µM)	–	–	Cc1ccc2oc([C@H]3CCN(Cc4ccc(C#N)cc4)C3)nc2c1
64.9	≤ 4.74 mL/min/kg	≤ 10.7 mL/min/kg	62.7 µg/mL (≈ 201 µM)	–	–	CC(C)(C)C(=O)N1CCN(C(=O)CCN2CCOC2=O)CC1
–	432 mL/min/kg	1450 mL/min/kg	–	–	–	Cc1cc(OCC(=O)N2CCC(n3c(=O)[nH]c4ccccc43)CC2)ccc1Cl
0.495	679 mL/min/kg	2200 mL/min/kg	–	–	–	O=C(OCC1CCSCC1)c1cccc(-n2cccn2)n1
0.527	7.3 mL/min/kg	20.5 mL/min/kg	22.2 µg/mL (≈ 89.4 µM)	–	–	CCC(CC)NC(=O)c1ccc2ncsc2c1
–	7.67 mL/min/kg	82.9 mL/min/kg	–	–	–	O=C(NCc1cccc2c1OCCCO2)c1cscn1
0.239	25.9 mL/min/kg	–	–	0.696	0.845	O=C(NC1CCNCC1)c1ccc2[nH]ncc2c1
0.581	27.8 mL/min/kg	1280 mL/min/kg	39.7 µg/mL (≈ 121 µM)	–	–	COc1c(C)cccc1CN1CCC(O)(c2ccc(F)cc2)CC1
